US5994361A, “Substituted purinyl derivatives with immunomodulating activity” (priority 1995, dated 1999)
Where two headings read alike, the source gives them in different places.

Tests used:
[1] = tested on: T cell activity (ConA), spleen mononuclear leukocytes; assay: Mitogenic proliferation on spleen cell suspension, T (ConA); type: cell-based, C57BL-6 mice
From the text: (§1) Mitogenic lectin (mitogen) is a protein which binds and cross-links specific cells surface carbohydrate determinants, and will polyclonally stimulate lymphoid cells. Lymphocyte activation by either antigens or mitogens results in intracellular changes and the subsequent development into a lymphoblast. Mitogenic stimulation of lymphocytes in vitro is believed to mimic the series of events which occur in vivo following their stimulation by specific antigens. PHA, ConA, and PWM, LPS mitogens can be used as a measurement of T cell and B cell activity, respectively.
(§2) Briefly, spleen mononuclear leukocytes from C57BL-6 mice were incubated in the presence or absence of mitogens with or without tested drugs. After 72 hours or 5 days, ^3 H thymidine incorporation was recorded as an indication of cell transformation and proliferation.
(§3) 100 μl of a suspension of 2×10^6 cells/ml (2×10^5 cells/well) were incubated in presence of PHA or ConA or PWM or LPS at the following concentrations:
(§4) PHA=0.01% final concentration-0.001%
(§5) Cells were incubated in presence or absence of drugs for 72 hours. 0.5 or 1 μCi of tritiated thymidine (^3 H) was added per well the last 18 or 6 hours of incubation respectively. Cells were harvested and counted on a Beta counter.

[2] = tested on: T cell response (mixed lymphocyte reaction); assay: Mixed lymphocyte reaction (MLR) assay; type: cell-based, C57B1/6 mice and DBA/2 mice
Description: (§6) Mixed lymphocyte reaction is an in vitro counterpart of the allograft rejection. Briefly, T cell response was obtained when cells taken from two inbred strains from two outbred individuals of any species were mixed in vitro in culture.
(§7) After 4 days incubation, ^3 H thymidine uptake and cytotoxicity assay (CTL) were performed.
(§8) 3 C57B1/6 mice and 3 DBA/2 mice wre killed and lymphocytes prepared using lympholyte M. The cell concentration was adjusted to 10×10^6 cell/ml for each lysis. DBA/2 cells were irradiated with 3000 Rads. 1 ml of the C57 cells+1 ml of the DBA/2 cells+1 ml of the drug at 3 different concentrations were incubated together for 5 days. Positive control was IL-2 at 15 ng/ml final. After 5 days, the CTL and MLR tests were carried out.
The cells were resuspended and 100 μl of cell suspension were deposited in each of the 96 wells in the plate, 50 μl of Thymidine at 20 μCi/ml was added for 6 hrs. The cells were then collected and counted using a beta counter.

[3] = tested on: B cell activity (LPS), spleen mononuclear leukocytes; assay: Mitogenic proliferation on spleen cell suspension, B (LPS); type: cell-based, C57BL-6 mice
From the text: as §1, §2, §3, §4, §5

[4] = tested on: cytotoxic T lymphocytes, P815 target cells; assay: Cytotoxic T lymphocytes (CTL) assay; type: cell-based, C57B1/6 mice and DBA/2 mice; conditions: for activation at 0.001 µM / activation at 0.1 µM / activation at 10 µM: Mus musculus, P815, 120 h, read-out: CTL activity, % increase compared to IL2 (100%); for activation at 0.001 µM: at 10^-9 M; for activation at 10 µM: at 10^-5 M
Description: as §6, §7, §8
P815 target cells were labelled with Cr^51. After labelling, the cells were resuspended to 5×10^4 cells/ml.
100 μl of target cells+100 μl Of T cells were incubated for 4 hrs and then 100 μl of supernatant was counted using a gamma counter.

[5] = tested on: immune system; conditions: prior art; cited from earlier work
[6] = prior art; cited from earlier work
[7] = at 10^-12 - 10^-6 (M), 4320 min

## N=C(N)NCCC[C@@H](NC(=O)OCCCCCn1cnc2c(NN)ncnc21)C(=O)O [Compound #7, Hydrazinopurinyl Pentoxycarbonyl D-Arginine]
[1]; at 10^-12 - 10^-8 (M), 4320 min
  T (ConA) mitogenic proliferation: 2 - 6 ×
[2]; at 10^-9 - 10^-6 M, 7200 min
  MLR: 1.5 - 2 ×
[3]; concentration not given
  B (LPS) mitogenic proliferation: 0
[4]
  activation at 0.001 µM: 60 to 80%

## OCCCCCn1cnc2c(Cl)ncnc21 [Compound #III, N-(6-Chloropurin-9-yl)-5-pentanol]
[2]; at 10^-9 - 10^-5 M
  MLR: 1.5 - 2.5 ×
[4]; at 10^-7 M
  activation at 0.1 µM: 60 to 80%

## N=C(N)NCCC[C@@H](NC(=O)OCCCCCn1cnc2c(Cl)ncnc21)C(=O)O [Compound #9, Chloropurinyl Pentoxycarbonyl D-Arginine]
[1]; [7]
  T (ConA) mitogenic proliferation: 2 - 3.5 ×

## N=C(N)NCCC[C@H](NC(=O)OCCCCCn1cnc2c(NN)ncnc21)C(=O)O [Compound #8, Hydrazinopurinyl Pentoxycarbonyl L-Arginine]
[2]; at 10^-9 - 10^-5 M
  MLR: 1.5 - 2 ×
[4]
  activation at 0.001 µM: > 80%

## isoprinosine
[5]
  immunomodulating activity: not an effective immunomodulator
[6]
  toxicity: very nontoxic

## N=C(N)NCCC[C@H](NC(=O)OCCCCCn1cnc2c(N)ncnc21)C(=O)O [Compound #6, Aminopurinyl Pentoxycarbonyl L-Arginine]
[2]; at 10^-9 - 10^-5 M
  MLR: 1.5 - 3 ×
[4]
  activation at 0.001 µM: 60 to 80%

## CNc1ncnc2c1ncn2CCCCCOC(=O)N[C@H](CCCNC(=N)N)C(=O)O [Compound #3, N-Monomethylaminopurinyl Pentoxycarbonyl D-Arginine]
[1]; [7]
  T (ConA) mitogenic proliferation: 2 - 6 ×
[2]; at 10^-9 - 10^-5 M
  MLR: 1.5 ×
[3]; at 10^-8 - 10^-6 (M), 4320 min
  B (LPS) mitogenic proliferation: 2 - 2.5 ×
[4]
  activation at 10 µM: 20 to 40%

## N=C(N)NCCC[C@@H](NC(=O)OCCCCCn1cnc2c(=O)[nH]cnc21)C(=O)O [Compound #11, Hydroxypurinyl Pentoxycarbonyl D-Arginine]
[2]; at 10^-7 - 10^-5 M
  MLR: 2 - 2.5 ×
[4]; at 10^-7 M
  activation at 0.1 µM: 40 to 60%

## N=C(N)NCCC[C@H](NC(=O)OCCCCCn1cnc2c(=O)[nH]cnc21)C(=O)O [ST 789, reference compound]
[1]; concentration not given
  T (ConA) mitogenic proliferation: 0
[2]; at 10^-9 - 10^-5 M
  MLR: 2 - 3 ×
[3]; at 10^-8 - 10^-5 (M), 4320 min
  B (LPS) mitogenic proliferation: 1.5 - 3 ×
[5]
  stimulation of cytotoxic T lymphocytes (CD8+ T cells): no indication
[4]; at 10^-7 M
  activation at 0.1 µM: 40 to 60%

## Oc1ncnc2[nH]ncc12 [allopurinol]
[5]
  immunomodulating activity: immunosuppressive

## CSc1ncnc2c1ncn2CCCCCO [Compound #60, N-(6,-N-Methylthiopurin-9-yl)-pentanol]
[2]; at 10^-9 - 10^-5 M
  MLR: 1.7 - 2 ×
[4]; at 10^-7 M
  activation at 0.1 µM: 20 to 40%

## O=c1[nH]cnc2c1cnn2CCCCCO [ST 689, allopurinol pentanol, reference compound]
[2]; at 10^-5 M, preliminary result, 10 µM
  MLR: 1.6 ×
[5]
  immunomodulating activity: not significantly more immunostimulatory than ST 789
[4]; at 10^-7 M, preliminary result
  CTL activity, % increase compared to IL2 (100%): ++++ (80+)

## CN(C)c1ncnc2c1ncn2CCCCCO [Compound #V, N-(6-N,N-Dimethylaminopurin-9-yl)-pentanol]
[2]; at 10^7 - 10^5 M (so in the source)
  MLR: 1.5 - 2 ×
[4]; at 10^-7 M
  activation at 0.1 µM: 60 to 80%

## N=C(N)NCCC[C@@H](NC(=O)OCCCCCn1cnc2c(N)ncnc21)C(=O)O [Compound #5, Aminopurinyl Pentoxycarbonyl D-Arginine]
[2]; at 10^-7 - 10^-5 M
  MLR: 1.5 - 2 ×
[4]; at 10^-7 M
  activation at 0.1 µM: 20 to 40%

## CNc1ncnc2c1ncn2CCCCCO [Compound #3a, N-(6-N-Methyl-Aminopurin-9-yl)-pentanol]
[2]; at 10^-9 - 10^-5 M
  MLR: 1.5 - 2.9 ×
[4]; at 10^-9 - 10^-7 M
  CTL activity, % increase compared to IL2 (100%): +++ (60-80%)

## OCCCCCn1cnc2cncnc21 [Compound #19, N-9-purinyl-5-pentanol]
[2]; concentration not given, preliminary result
  MLR: 0
[4]; at 10^-7 M, preliminary result
  activation at 0.1 µM: 40 to 60%

## CN(C)c1ncnc2c1ncn2CCCCCOC(=O)N[C@@H](CCCNC(=N)N)C(=O)O [Compound #2, N,N-Dimethylaminopurinyl Pentoxycarbonyl L-Arginine]
[1]; at 10^-8 - 10^-5 (M), 4320 min
  T (ConA) mitogenic proliferation: 2 - 4 ×
[2]; at 10^-7 - 10^-5 M
  MLR: 1.5 - 2 ×
[3]; concentration not given
  B (LPS) mitogenic proliferation: 0
[4]; concentration not given
  CTL activity, % increase compared to IL2 (100%): 0 (less than 20%)

## COc1ncnc2c1ncn2CCCCCO [Compound #51, N-(6-methoxypurin-9-yl) 5-pentanol]
[2]; at 10^-9 - 10^-6 M, 7200 min
  MLR: 1.5 - 2 ×
[4]; at 10^-7 M
  activation at 0.1 µM: 40 to 60%

## OCCCCCn1cnc2c(S)ncnc21 [Compound #59, N-(6-Mercaptopurin-9-yl)-pentanol]
[2]; at 10^-9 - 10^-5 M
  MLR: 2 - 2.4 ×
[4]
  activation at 0.001 µM: 40 to 60%

## N=C(N)NCCC[C@@H](NC(=O)OCCCCCn1cnc2cncnc21)C(=O)O [Compound #20, N-9-purinyl-7-pentyloxycarbonyl-D-arginine]
[4]
  activation at 10 µM: 40 to 60%

## NNc1ncnc2c1ncn2CCCCCO [Compound #7a, N-(6-Hydrazinopurin-9-yl) 5-Pentanol]
[2]; at 10^-9 - 10^-5 M, preliminary result
  MLR: 2 ×
[4]; preliminary result
  activation at 0.001 µM: > 80%

## Nc1ncnc2c1ncn2CCCCCO [Compound #5a, N-(6-Aminopurin-9-Yl) 5-Pentanol]
[2]; at 10^-9 - 10^-6 M, 7200 min
  MLR: 1.5 - 2 ×
[4]; at 10^-7 - 10^-5 M
  CTL activity, % increase compared to IL2 (100%): ++ (40-60%)
